64 compounds from patent publication US9464071B2 (priority 2010, dated 2016) can be followed below.

“And” between values parts separate entries of the source, which are not always exact repeats. Equal values may be shown once. Where a name gives a salt, the structure may show the parent alone. Bounds are passed on as bounds.

The melting point is the temperature, or range, at which the solid turns liquid.

Compound `COc1cc(OC)cc(N(Cc2nc(OC)cc(OC)n2)c2ccc3ncc(-c4cnn(C)c4)nc3c2)c1` came in with a melting point of 127 °C.

Take `COc1cc(OC)cc(N(CC2CC2)c2ccc3ncc(-c4cnn(CCC5CCNCC5)c4)nc3c2)c1`: the melting point was 221 °C and 220.78 °C.

Take `COc1cc(OC)cc(N(C[C@@H]2C[C@H]2CO)c2ccc3ncc(-c4cnn(C)c4)nc3c2)c1` [Compound 89]: the melting point is 126.66 °C and 126 °C.

On to `CNCCN(c1cc(OC)cc(OC)c1)c1ccc2ncc(-c3cn[nH]c3)nc2c1`, for which the melting point was 193.59 °C.

As for `CNCCN(c1cc(OC)cc(OC)c1)c1ccc2ncc(-c3cnn(C)c3)nc2c1`, the melting point is 180 to 182 °C and 181 °C.

Consider `COc1cc(OC)cc(N(CCO)c2ccc3ncc(-c4cnn(C)c4)nc3c2)c1`, for which the melting point is 152.97 °C and 153 °C.

On to `COc1cc(OC)cc(N(CC(O)CO)c2ccc3ncc(-c4cnn(C)c4)nc3c2)c1` (stereo not shown) [Compound 75], for which the melting point is 186 °C and 186.76 °C and 187 °C.

For `COc1cc(OC)cc(N(CCCNCC(N)=O)c2ccc3ncc(-c4cnn(C)c4)nc3c2)c1` [Compound 641], the melting point was determined as 155 °C.

Compound `COc1cc(OC)cc(N(Cc2cnccn2)c2ccc3ncc(-c4cnn(C)c4)nc3c2)c1` [Compound 146, N-(3,5-Dimethoxyphenyl)-3-(1-methyl-1H-pyrazol-4-yl)-N-(pyrazin-2-ylmethyl)quinoxalin-6-amine] had a melting point of 163 °C.

Regarding `COc1cc(OC)cc(N(c2ccc3ncc(-c4cnn(C)c4)nc3c2)C(C)(C)C#Cc2nccc(OC)n2)c1` [Compound 806], the melting point came out at 182 °C.

For the compound `COc1cc(OC)cc(N(Cc2nccn2C)c2ccc3ncc(-c4cnn(C)c4)nc3c2)c1` [Compound 101], the melting point was determined as 186 °C.

Consider `COc1cc(OC)cc(N(CC2CC2)c2ccc3ncc(-c4cnn(CC(O)CO)c4)nc3c2)c1` (stereo not shown) [Compound 37], for which the melting point was 154.05 °C and 154 °C.

Regarding `COc1cc(OC)cc(N(CCCC#N)c2ccc3ncc(-c4cnn(C)c4)nc3c2)c1` [Compound 242], the melting point worked out at 196.25 °C.

In the case of `COc1cc(OC)cc(N(Cc2cc3ncccc3n2C)c2ccc3ncc(-c4cnn(C)c4)nc3c2)c1`, the melting point was determined as 241 °C.

`COc1cc(OC)cc(N(Cc2ccc(Cl)s2)c2ccc3ncc(-c4cnn(C)c4)nc3c2)c1`: the melting point was determined as 140.28 °C.

`CNC(=O)c1cc(OC)cc(N(CC2CC2)c2ccc3ncc(-c4cn[nH]c4)nc3c2)c1` [Compound 311] registered a melting point of 262.42 °C.

For `COc1cc(OC)cc(N(CC#Cc2cc(OC)nc(OC)n2)c2ccc3ncc(-c4cnn(C)c4)nc3c2)c1` [Compound 913], the melting point turned out to be 170 °C.

In the case of `COc1cc(OC)cc(N(CCN2C[C@@H]3C[C@H]2CN3)c2ccc3ncc(-c4cnn(C)c4)nc3c2)c1` (as salt: HCl) [Compound 621], the melting point was greater than 260 °C.

`COc1cc(OC)cc(N(CC2CC2)c2ccc3ncc(-c4cnn(CC(C)(C)O)c4)nc3c2)c1`: the melting point is 159.08 °C and 159 °C.

As to `COc1ccnc(C#CCN(c2ccc3ncc(-c4cnn(C)c4)nc3c2)c2c(F)c(OC)cc(OC)c2F)n1`, the melting point was determined as 187 °C.

`COc1cc(OC)cc(N(Cc2nc(C)c[nH]2)c2ccc3ncc(-c4cnn(C)c4)nc3c2)c1` (as salt: HCl): the melting point was determined as 188 °C.

In turn, `COc1cc(OC)cc(N(Cc2ccc(Cl)cc2)c2ccc3ncc(-c4cnn(C)c4)nc3c2)c1` gave a melting point of 114.12 °C.

Turning to `CNC(=O)Cn1cc(-c2cnc3ccc(N(CCO)c4cc(OC)cc(OC)c4)cc3n2)cn1` [Compound 21], the melting point was 204.45 °C and 204.5 °C.

On to `CNC(=O)Cn1cc(-c2cnc3ccc(N(CC4CC4)c4cc(OC)cc(OC)c4)cc3n2)cn1`, for which the melting point was 170.82 °C.

`COc1cccc(C#CCN(c2cc(OC)cc(OC)c2)c2ccc3ncc(-c4cnn(C)c4)nc3c2)c1` displayed a melting point of 85 °C.

Turning to `COc1cc(OC)cc(N(CCc2nnn[nH]2)c2ccc3ncc(-c4cnn(C)c4)nc3c2)c1`, the melting point was 196 °C and 195.95 °C.

`COc1cc(OC)cc(N(Cc2ncccn2)c2ccc3ncc(-c4cnn(C)c4)nc3c2)c1` [Compound 812] displayed a melting point of 170 °C.

Turning to `COc1cc(OC)cc(N(CC2CC2)c2ccc3ncc(-c4cnn(CC(C)C)c4)nc3c2)c1`, the melting point is 110 °C.

With `COc1cc(F)cc(N(CCN)c2ccc3ncc(-c4cnn(C)c4)nc3c2)c1` [Compound 488], the melting point is 96.65 °C.

Consider `COCC(O)CN(c1cc(OC)cc(OC)c1)c1ccc2ncc(-c3cnn(C)c3)nc2c1` (stereo not shown) [Compound 397], for which the melting point is 132.82 °C.

`COc1cc(OC)cc(N(CCN2CCC(CN)CC2)c2ccc3ncc(-c4cnn(C)c4)nc3c2)c1` (as salt: HCl): the melting point was 151 °C.

In the case of `COc1cc(OCCO)cc(N(CC2CC2)c2ccc3ncc(-c4cnn(CCS(C)(=O)=O)c4)nc3c2)c1`, the melting point is 80 °C.

In the case of `CC(C)Oc1cccc(N(CC2CC2)c2ccc3ncc(-c4cnn(C)c4)nc3c2)c1` [Compound 22], the melting point was 109 °C and 108.61 °C.

Consider `COc1cc(OC)cc(N(CC#Cc2cccnc2Br)c2ccc3ncc(-c4cnn(C)c4)nc3c2)c1`, for which the melting point was 176 °C.

In turn, `COc1cc(OC)cc(N(c2ccc3ncc(-c4cnn(C)c4)nc3c2)S(=O)(=O)N(C)C)c1` showed a melting point of 80 °C.

In the case of `COc1cc(OC)cc(N(CC#Cc2ccc(C)cn2)c2ccc3ncc(-c4cnn(C)c4)nc3c2)c1`, the melting point turned out to be 155 °C.

In the case of `COc1cc(OC)cc(N(CC2CNCCO2)c2ccc3ncc(-c4cnn(C)c4)nc3c2)c1` (stereo not shown), the melting point was determined as 149 °C.

Take `COc1cc(OC)cc(N(CCCN2CCC(F)(F)C2)c2ccc3ncc(-c4cnn(CC5CCOCC5)c4)nc3c2)c1` [Compound 459]: the melting point amounted to 99.32 °C.

`COc1cc(OC)cc(N(CCF)c2ccc3ncc(-c4cnn(C)c4)nc3c2)c1` returned a melting point of 143 °C.

In turn, `COc1cc(OC)cc(N(CCCN2CCCC2=O)c2ccc3ncc(-c4cnn(C)c4)nc3c2)c1` [Compound 132, 1-(3-{(3,5-Dimethoxyphenyl)[3-(1-methyl-1H-pyrazol-4-yl)quinoxalin-6-yl]amino}propyl)pyrrolidin-2-one] came in with a melting point of 132.47 °C.

Compound `COc1cc(OC)cc(N(CC(=O)Nc2cc(C)ccn2)c2ccc3ncc(-c4cnn(C)c4)nc3c2)c1` had a melting point of 212 °C.

As to `COc1cc(OC)cc(N(CC(=O)Nc2nccc(OC)n2)c2ccc3ncc(-c4cnn(C)c4)nc3c2)c1`, the melting point was found to be 241 °C.

For `CNCCn1cc(-c2cnc3ccc(N(CC4CC4)c4cc(OC)cc(OC)c4)cc3n2)cn1`, the melting point is 103 °C and 103.14 °C.

Compound `COc1cc(OC)cc(N(Cc2cc[nH]n2)c2ccc3ncc(-c4cnn(C)c4)nc3c2)c1` (as salt: HCl) showed a melting point of 203 °C.

`COc1cccnc1C#CCN(c1ccc2ncc(-c3cnn(C)c3)nc2c1)c1c(F)c(OC)cc(OC)c1F` had a melting point of 202 °C.

As for `COc1cc(OC)cc(N(CCN2CC[C@H](C#N)C2)c2ccc3ncc(-c4cnn(C)c4)nc3c2)c1` [Compound 133, (3S)-1-(2-{(3,5-Dimethoxyphenyl)[3-(1-methyl-1H-pyrazol-4-yl)quinoxalin-6-yl]amino}ethyl)pyrrolidine-3-carbonitrile], the melting point came to 126.47 °C.

For the compound `COc1cc(OC)cc(N(CCC#Cc2ccccc2)c2ccc3ncc(-c4cnn(C)c4)nc3c2)c1` [Compound 919], the melting point was found to be 130 °C.

`COc1cc(OC)cc(N(CCN2C[C@H](C)C[C@H](C)C2)c2ccc3ncc(-c4cnn(C)c4)nc3c2)c1` [Compound 39] showed a melting point of 80 °C.

For the compound `COc1cc(OC)cc(N(CC2CC2)c2ccc3ncc(-c4cnn(S(=O)(=O)N(C)C)c4)nc3c2)c1` [Compound 58], the melting point was 163 °C and 165 °C.

`CCn1cc(-c2cnc3ccc(N(CCNC(C)C)c4cc(OC)cc(OC)c4)cc3n2)cn1` (as salt: HCl) [Compound 135, N-(3,5-Dimethoxyphenyl)-N-[3-(1-ethyl-1H-pyrazol-4-yl)quinoxalin-6-yl]-N′-(1-methylethyl)ethane-1,2-diamine] returned a melting point of 194 °C.

Regarding `COc1cc(OC)cc(N(CC2CNCCN2)c2ccc3ncc(-c4cnn(C)c4)nc3c2)c1` (stereo not shown), the melting point worked out at 167 °C.

As to `COc1cc(OC)cc(N(CCCNCC(F)(F)F)c2ccc3ncc(-c4cnn(CCCN)c4)nc3c2)c1`, the melting point stood at 175 °C.

As to `COc1cc(OC)cc(N(CCNC(C)C)c2ccc3ncc(-c4cnn(CCCN5CCN(CCO)CC5)c4)nc3c2)c1` (as salt: HCl) [Compound 644], the melting point turned out to be 96 °C.

In the case of `COc1cc(OC)cc(N(CC2CN(C(C)C)CCO2)c2ccc3ncc(-c4cnn(C)c4)nc3c2)c1` (stereo not shown), the melting point amounted to 88 °C.

The compound `CCOc1cc(F)cc(N(CCN)c2ccc3ncc(-c4cnn(C)c4)nc3c2)c1` [Compound 478] had a melting point of 70 °C.

On to `COc1cc(OC)cc(N(c2ccc3ncc(-c4cnn(C)c4)nc3c2)[C@H]2CC[C@@H](NC(C)C)CC2)c1`, for which the melting point came to 83 °C.

In the case of `COc1cc(OC)cc(N(CC(O)CN2CCOCC2)c2ccc3ncc(-c4cnn(C)c4)nc3c2)c1` (stereo not shown) [Compound 540], the melting point came out at 130.63 °C.

`COc1cc(OC)cc(N(CC#Cc2ncccc2OC)c2ccc3ncc(-c4cnn(C(C)C)c4)nc3c2)c1` displayed a melting point of 119 °C.

Take `COc1cc(OC)cc(N(CC#Cc2nccn2C)c2ccc3ncc(-c4cnn(C)c4)nc3c2)c1`: the melting point was 193.25 °C and 192 °C.

`COc1cc(OC)cc(N(CCO)c2ccc3ncc(-c4cnn(C)c4CCCO)nc3c2)c1` displayed a melting point of 62 °C.

`COc1cc(F)cc(N(CCO)c2ccc3ncc(-c4cnn(CCO)c4)nc3c2)c1` [Compound 315] had a melting point of 139 °C.

`COc1cc(OC)cc(N(CCNC(C)C)c2ccc3ncc(-c4c(C)nn(C)c4C)nc3c2)c1` (as salt: HCl) [Compound 623] returned a melting point of 133 °C.

As for `COc1cc(OC)cc(N(Cc2ccccc2)c2ccc3ncc(-c4cnn(C)c4)nc3c2)c1`, the melting point amounted to 133.89 °C.

For the compound `CNC(=O)Cn1cc(-c2cnc3ccc(N(CCCO)c4cc(OC)cc(OC)c4)cc3n2)cn1` [Compound 313], the melting point is 176 °C and 176.49 °C.
